# Reference: patent US20220091128A1, “SYSTEM AND METHOD FOR LIGAND THERMAL ANALYSIS” (Portland State University, priority 2019, published 2022)
# Where “and” joins values, the source holds several entries; their conditions need not be identical. Identical values can stand only once. Like-named read-outs stand apart in the source and are kept apart here.
# Columns and labels:
# HSA [1] = molecular target: T1, HSA (Homo sapiens, UniProt P02768)
# Protocol: (§1) Ligand solubilization: Stock solutions of aqueous insoluble ligands in organic solvents were pipetted into microcentrifuge tubes to yield a desired amount of drug for a 1 mL solution. The microcentrifuge tubes were placed into a vacuum concentrator (Savant SpeedVac Model SC100), and the organic solvents were evaporated, resulting in solid drug in the tube. To each tube, HSA is added at a predetermined concentration with standard buffer to provide a 1 mL working solution.
# (§2) In total binding of 28 drug compounds to HSA was examined by obtaining thermograms.
# [2] = molecular target: T2, human serum albumin (HSA) (Homo sapiens, UniProt P02768); test: DSC thermograms of HSA with ligand (single-ligand titration); format: binding; conditions: for Binding Site stoichiometry / Implied number of sites: from dose response curves with HSA; for Tm / ΔG37^O / ΔHcal / ΔScal: thermal denaturation of HSA
# T2 construct: purchased Sigma Aldrich (St. Louis, Mo.)
# T2 sequence (P02768 25-609): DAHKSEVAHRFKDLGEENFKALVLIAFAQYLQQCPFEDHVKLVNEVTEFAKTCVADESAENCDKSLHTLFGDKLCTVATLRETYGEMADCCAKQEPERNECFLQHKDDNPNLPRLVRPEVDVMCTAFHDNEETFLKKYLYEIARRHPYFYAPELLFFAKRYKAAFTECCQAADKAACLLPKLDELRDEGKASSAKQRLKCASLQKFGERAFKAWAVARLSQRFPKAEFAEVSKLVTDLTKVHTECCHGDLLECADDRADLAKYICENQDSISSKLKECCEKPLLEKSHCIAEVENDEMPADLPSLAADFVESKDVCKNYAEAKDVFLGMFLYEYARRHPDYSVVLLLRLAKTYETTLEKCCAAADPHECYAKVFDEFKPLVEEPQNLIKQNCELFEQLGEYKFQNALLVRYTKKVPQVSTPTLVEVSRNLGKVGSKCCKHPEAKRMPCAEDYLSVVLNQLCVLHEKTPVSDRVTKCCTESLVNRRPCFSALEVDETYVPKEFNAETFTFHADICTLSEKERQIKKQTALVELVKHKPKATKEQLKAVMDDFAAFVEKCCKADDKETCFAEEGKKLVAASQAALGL
# Protocol: Chemicals and reagents: Plasma and highly pure plasma proteins are sourced from commercial suppliers. Standard reagents are sourced from commercial suppliers. Samples are prepared in standard phosphate-buffered saline (PBS) buffer. In some examples, human plasma and serum albumin were purchased from Sigma Aldrich (St. Louis, Mo.) and received as lyophilized powder. Plasma was product number: P9523, lot number: SLBT0202. […] In vivo, the standard state of HSA is most certainly bound to some extent by fatty acids. Plasma and HSA stock solutions were prepared by re-suspending the appropriate amount of powder in buffer. Samples were prepared by diluting stock solutions to a final concentration of 1.5-2.0 mg/mL.
# Protein concentration was approximately 2 mg/ml.
# In a DSC melting experiment, the supplemental power supplied to the sample cell (in μW) necessary to keep the sample temperature equal to the reference temperature is continually monitored. […] Supplemental power is directly related to the molar heat capacity at constant pressure, ΔCp. Curves of ΔCp versus T provide an evaluation of the thermodynamic enthalpy. To enable direct comparisons in some cases, power (μW) versus T plots (instead of ΔCp versus T curves) were used for the following reason.
# Analysis of DSC data was performed using the Nanoanalyze software package, version 3.7.5, provided by T.A. Instruments. […]
# From the thermograms, semi-quantitative evaluations of the thermodynamic parameters ΔHcal, ΔScal and ΔGcal(37° C.) were obtained at each ligand concentration.
# These curves were constructed from titrations of DM1 with HSA. The Tm and ΔGcal(37° C.) were evaluated. The values were normalized against standard HSA and plotted versus ligand concentration to provide the dose curves in FIG. 20A (Tm) and FIG. 20B (ΔGcal(37° C.)).
# Natural HSA samples were prepared at pH 6.0 and pH 8.0 and examined by DSC. […] From DSC melting curves thermodynamic parameters for HSA/ligand mixtures were evaluated.
# HSA [3] = molecular target: T1, HSA; design: purchased Sigma Aldrich (St. Louis, Mo.); conditions: cited from earlier work; for Kd: binding to HSA, read-out: Average Literature KD
# biotinylated HSA (HSAB) = biotinylated HSA (HSAB) (Homo sapiens, UniProt P02768); test: DSC thermograms of biotinylated HSA (HSAB) with ligands; format: binding
# Chain of biotinylated HSA (HSAB) (P02768 25-609): as above
# [4] = molecular target: T2, human serum albumin (HSA); test: Two-ligand (NAP + BCG) binding to standard HSA by DSC
# HSA [5] = molecular target: T1, HSA; test: Drug screening: HSA binding constants from DSC thermograms
# Protocol: as §1, §2
# human plasma = test: DSC thermograms of plasma with ligand; format: binding; conditions: plasma
# [6] = after several days; cited from earlier work
# [7] = ligand 22.5 μM (so in the source)
# T1 sequence (P02768 25-609): as above
structure (smiles),measurement,setting,value
O=C([O-])CN1CCN(CC(=O)[O-])CCN([C@H](CO)[C@H](O)CO)CCN(CC(=O)[O-])CC1.[Gd+3] [Gadavist (GAD)],Measured HSA binding (cell spanning the measured KD columns; same in text),HSA [1],No Binding Detected
"Cc1c(C2(c3cc(Br)c(O)c(Br)c3C)OS(=O)(=O)c3ccccc32)cc(Br)c(O)c1Br [BCG, bromocresol green]",increase of ΔGcal(37° C.) versus titration curve at pH 7.4,"[2]; HSA + ligand at pH 6.0, as much as",~5 kcal/mol
same,lowering of ΔGcal(37° C.) versus titration curve at pH 7.4,[2]; HSA + ligand at pH 8.0,~2 kcal/mol
same,ΔHcal of HSA/ligand,"[2]; HSA, 100 μM ligand (text, FIG. 10B)",165.6 kcal/mol and 166 kcal/mol
same,Binding Site stoichiometry,[2],3
same,Implied number of sites,[2],6
same,Tm,[2]; ligand 1 μM,62.9 °C
same,ΔG37^O,[2]; ligand 1 μM,13.11 kcal/mol
same,ΔHcal,[2]; ligand 1 μM,170.12 kcal/mol
same,ΔScal,[2]; ligand 1 μM,506.23 cal/molK
same,Tm,[2]; ligand 10 μM,63.3 °C
same,ΔG37^O,[2]; ligand 10 μM,13.83 kcal/mol
same,ΔHcal,[2]; ligand 10 μM,176.99 kcal/mol
same,ΔScal,[2]; ligand 10 μM,526.08 cal/molK
same,Tm,[2]; [7],70.8 °C
same,ΔG37^O,[2]; [7],16.43 kcal/mol
same,ΔHcal,[2]; [7],167.24 kcal/mol
same,ΔScal,[2]; [7],486.25 cal/molK
same,Tm,[2]; ligand 25 μM,63.6 °C
same,ΔG37^O,[2]; ligand 25 μM,14.39 kcal/mol
same,ΔHcal,[2]; ligand 25 μM,182.05 kcal/mol
same,ΔScal,[2]; ligand 25 μM,540.59 cal/molK
same,Tm,[2]; ligand 50 μM,64.0 °C
same,ΔG37^O,[2]; ligand 50 μM,15.19 kcal/mol
same,ΔHcal,[2]; ligand 50 μM,189.75 kcal/mol
same,ΔScal,[2]; ligand 50 μM,562.81 cal/molK
same,Tm,[2]; ligand 75 μM,64.6 °C
same,ΔG37^O,[2]; ligand 75 μM,15.33 kcal/mol
same,ΔHcal,[2]; ligand 75 μM,187.76 kcal/mol
same,ΔScal,[2]; ligand 75 μM,555.95 cal/molK
same,Tm,[2]; ligand 125 μM,67.2 °C
same,ΔG37^O,[2]; ligand 125 μM,16.18 kcal/mol
same,ΔHcal,[2]; ligand 125 μM,182.33 kcal/mol
same,ΔScal,[2]; ligand 125 μM,535.71 cal/molK
same,Tm,[2]; ligand 150 μM,69.0 °C
same,ΔG37^O,[2]; ligand 150 μM,16.74 kcal/mol
same,ΔHcal,[2]; ligand 150 μM,178.84 kcal/mol
same,ΔScal,[2]; ligand 150 μM,522.66 cal/molK
same,Tm,[2]; ligand 175 μM,69.1 °C
same,ΔG37^O,[2]; ligand 175 μM,15.92 kcal/mol
same,ΔHcal,[2]; ligand 175 μM,169.77 kcal/mol
same,ΔScal,[2]; ligand 175 μM,496.04 cal/molK
same,Tm,[2]; ligand 200 μM,70.3 °C
same,ΔG37^O,[2]; ligand 200 μM,16.24 kcal/mol
same,ΔHcal,[2]; ligand 200 μM,167.42 kcal/mol
same,ΔScal,[2]; ligand 200 μM,487.44 cal/molK
same,binding stoichiometry n on HSA,"HSA [3]; NAP Sudlow site II, BCG Sudlow site I",3
same,Kd,HSA [3],1.43 µM
same,Binding Chemical Potentials (ΔG^O37),"biotinylated HSA (HSAB); HSAB 1:1 with 50 μM BCG, [NAP] 0 μM",18.49 kcal/mol
same,Binding Chemical Potentials (ΔG^O37),"biotinylated HSA (HSAB); HSAB 1:1 with 50 μM NAP, [BCG] 50 μM",21.76 kcal/mol
same,Binding Chemical Potentials (ΔG^O37),"biotinylated HSA (HSAB); HSAB 1:1 with 50 μM NAP, [BCG] 75 μM",22.56 kcal/mol
same,Binding Chemical Potentials (ΔG^O37),"biotinylated HSA (HSAB); HSAB 1:1 with 50 μM NAP, [BCG] 150 μM",22.96 kcal/mol
same,Binding Chemical Potentials (ΔG^O37),"biotinylated HSA (HSAB); HSAB 1:5 with 50 μM BCG, [NAP] 0 μM",21.27 kcal/mol
same,Binding Chemical Potentials (ΔG^O37),"biotinylated HSA (HSAB); HSAB 1:5 with 50 μM NAP, [BCG] 50 μM",24.12 kcal/mol
same,Binding Chemical Potentials (ΔG^O37),"biotinylated HSA (HSAB); HSAB 1:5 with 50 μM NAP, [BCG] 75 μM",25.60 kcal/mol
same,Binding Chemical Potentials (ΔG^O37),"biotinylated HSA (HSAB); HSAB 1:5 with 50 μM NAP, [BCG] 150 μM",25.06 kcal/mol
same,Binding Chemical Potentials (ΔG^O37),"biotinylated HSA (HSAB); HSAB 1:10 with 50 μM BCG, [NAP] 0 μM",22.37 kcal/mol
same,Binding Chemical Potentials (ΔG^O37),"biotinylated HSA (HSAB); HSAB 1:10 with 50 μM NAP, [BCG] 50 μM",25.04 kcal/mol
same,Binding Chemical Potentials (ΔG^O37),"biotinylated HSA (HSAB); HSAB 1:10 with 50 μM NAP, [BCG] 75 μM",25.30 kcal/mol
same,Binding Chemical Potentials (ΔG^O37),"biotinylated HSA (HSAB); HSAB 1:10 with 50 μM NAP, [BCG] 150 μM",24.99 kcal/mol
same,Binding Chemical Potentials (ΔG^O37),"[4]; HSA25BCG (HSA + 25 μM BCG), [NAP] 0 μM",14.00 kcal/mol
same,Binding Chemical Potentials (ΔG^O37),"[4]; HSA25NAP (pre-bound 25 μM NAP), [BCG] 50 μM",18.33 kcal/mol
same,Binding Chemical Potentials (ΔG^O37),"[4]; HSA25NAP (pre-bound 25 μM NAP), [BCG] 75 μM",19.49 kcal/mol
same,Binding Chemical Potentials (ΔG^O37),"[4]; HSA25NAP (pre-bound 25 μM NAP), [BCG] 150 μM",19.61 kcal/mol
same,Binding Chemical Potentials (ΔG^O37),"[4]; HSA50BCG (HSA + 50 μM BCG), [NAP] 0 μM",15.13 kcal/mol
same,Binding Chemical Potentials (ΔG^O37),"[4]; HSA50NAP (pre-bound 50 μM NAP), [BCG] 50 μM",18.27 kcal/mol
same,Binding Chemical Potentials (ΔG^O37),"[4]; HSA50NAP (pre-bound 50 μM NAP), [BCG] 75 μM",18.47 kcal/mol
same,Binding Chemical Potentials (ΔG^O37),"[4]; HSA50NAP (pre-bound 50 μM NAP), [BCG] 150 μM",19.29 kcal/mol
same,Binding Chemical Potentials (ΔG^O37),"[4]; HSA75BCG (HSA + 75 μM BCG), [NAP] 0 μM",15.33 kcal/mol
same,Binding Chemical Potentials (ΔG^O37),"[4]; HSA75NAP (pre-bound 75 μM NAP), [BCG] 50 μM",19.51 kcal/mol
same,Binding Chemical Potentials (ΔG^O37),"[4]; HSA75NAP (pre-bound 75 μM NAP), [BCG] 75 μM",20.42 kcal/mol
same,Binding Chemical Potentials (ΔG^O37),"[4]; HSA75NAP (pre-bound 75 μM NAP), [BCG] 150 μM",21.08 kcal/mol
same,Binding Chemical Potentials (ΔG^O37),"[4]; WT HSA with 50 μM BCG, [NAP] 0 μM",15.19 kcal/mol
same,Binding Chemical Potentials (ΔG^O37),"[4]; WT HSA with 50 μM NAP, [BCG] 50 μM",18.38 kcal/mol
same,Binding Chemical Potentials (ΔG^O37),"[4]; WT HSA with 50 μM NAP, [BCG] 75 μM",18.74 kcal/mol
same,Binding Chemical Potentials (ΔG^O37),"[4]; WT HSA with 50 μM NAP, [BCG] 150 μM",19.86 kcal/mol
same,Kd,HSA [5]; read-out: Average Measured KD; binding to HSA; single value or value marked 1),3.31 µM
same,Kd,HSA [5]; read-out: Measured KD From TM; binding to HSA; single value or value marked 1),4.97 µM
same,Kd,HSA [5]; read-out: Measured KD from ΔG^037; binding to HSA; single value or value marked 1),1.64 µM
same,shift in Tm,human plasma; 100 μM ligand,about 7 °C
same,enthalpy (ΔHcal) of plasma with ligand,human plasma; 100 μM ligand (FIG. 10A),141 kcal/mol
same,major Tm peak of plasma shifted to,human plasma; 100 μM ligand (FIG. 10A),72 °C
CNC[C@H](O)[C@@H](O)[C@H](O)[C@H](O)CO.CNC[C@H](O)[C@@H](O)[C@H](O)[C@H](O)CO.O=C([O-])CN(CCN(CC(=O)[O-])CC(=O)O)CCN(CC(=O)[O-])CC(=O)O.[Gd+3] [Magnevist (MAG)],Measured HSA binding (cell spanning the measured KD columns; same in text),HSA [1],No Binding Detected
"CCCCNc1ccc(C(=O)OCCN(C)C)cc1 [Tet, Tetracaine]",Binding Site stoichiometry,[2],1
same,Implied number of sites,[2],1
same,Kd,HSA [3],59.8 µM
same,Kd,"HSA [5]; Average Measured KD, binding to HSA; single value or value marked 1)",26.1 µM
same,Kd,"HSA [5]; Measured KD From TM, binding to HSA; single value or value marked 1)",23.6 µM
same,Kd,"HSA [5]; Measured KD from ΔG^037, binding to HSA; single value or value marked 1)",28.6 µM
same,effect on fibrinogen melting transition peak (52° C.) of the plasma thermogram,human plasma; 2 mg/mL ligand,slight change
same,Tm where the HSA in plasma transition occurs,"human plasma; 2 mg/mL ligand, control 62-64° C.",63-65 °C
same,in vivo activity,[6],retained significant activity after several days
